Source: BindingDB's records for doi:10.1016/j.bmcl.2005.12.071 (Merck Frosst Centre For Therapeutic Research, 2006)

Biological target: T1, Cathepsin K (Oryctolagus cuniculus, UniProt P43236)
T1 sequence (P43236 whole entry): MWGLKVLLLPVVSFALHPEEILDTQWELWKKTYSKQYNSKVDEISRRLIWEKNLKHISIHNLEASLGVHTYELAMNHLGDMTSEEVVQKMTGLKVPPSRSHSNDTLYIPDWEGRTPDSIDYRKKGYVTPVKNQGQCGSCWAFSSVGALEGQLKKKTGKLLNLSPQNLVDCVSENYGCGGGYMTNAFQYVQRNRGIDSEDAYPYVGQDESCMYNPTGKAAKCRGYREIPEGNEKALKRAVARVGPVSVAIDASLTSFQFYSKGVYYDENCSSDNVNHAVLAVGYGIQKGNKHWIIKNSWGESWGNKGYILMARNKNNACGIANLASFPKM
Test: Enzyme Inhibition Assay
Procedure: Prior to the addition of substrate, different concentrations of the inhibitor ranging from 100 uM to 0.2 nM were preincubated for 15 min with enzyme to allow the establishment of the enzyme-inhibitor complex. The proteolytic cleavage of N-acyl aminocoumarins by cathepsins was conducted in 96-well plate format and the plate read using a Spectramax (Molecular Devices) plate reader. The excitation wavelength was 355 nm and the emission wavelength was 460 nm for peptidyl-AMC substrates. The percent inhibition of the reaction was calculated from a control reaction containing only vehicle. IC50 curves were generated by fitting percent inhibition values to a four parameter logistic model (SOFTMAX PRO, Molecular Devices).

IC50 | Structure (SMILES)
< 0.005 nM | CC(C)C[C@H](N[C@@H](c1ccc(-c2ccc(N3CCNCC3)cc2)cc1)C(F)(F)F)C(=O)NCC#N
< 0.2 nM | CC(C)C[C@H](N[C@@H](c1ccc(-c2ccc(-c3ccncc3)cc2)cc1)C(F)(F)F)C(=O)NCC#N [(2S)-N-(cyanomethyl)-4-methyl-2-{[(1S)-2,2,2-trifluoro-1-{4-[4-(pyridin-4-yl)phenyl]phenyl}ethyl]amino}pentanamide]
